The subject of assay [1] is MDA-MB-468 triple negative breast cancer cells. Description: MTS cytotoxicity assay in MDA-MB-468 triple negative breast cancer cells. Conditions: for effect on MDA-MB 468 TNBC cell viability: 10, 50 and 100 μM for 24, 48 and 72 hours, MTS; for IC50: Homo sapiens, MDA-MB-468, 72 hours, mean ± SD n = 3. It counts as cell-based. The method, then: The assay was performed as follows.
Derivatives were dosed at 10, 50 and 100 μM for 24, 48 and 72 hours and cell viability measured by MTS assay (FIG. 5).
Background: Tetrazolium dyes change colour on reduction, which living cells bring about.

For assay [2], the system named is VEGF-induced proliferation of HUVEC cells. The experiment in a line: VEGF-induced HUVEC proliferation, MTT assay. It counts as cell-based, human. The following applies: for inhibition of VEGF-induced HUVEC proliferation (in words): 20 μM; for inhibition at 20 µM: Homo sapiens, read-out: % Inhibition of Proliferation. The method, then: The assay was performed as follows. Vascular endothelial growth factor (VEGF, Cat #SRP3182) was purchased from Sigma. […] Stock solutions of all compounds were prepared in DMSO and were serially diluted for cell culture treatment maintaining the final DMSO concentration at less than 1%. Cell proliferation of HUVECs was evaluated through the MTT (3-[4, 5-dimethylthiazol-2-yl]-2, 5-dimethyltetrazolium bromide) colorimetric assay, as previously described.^28 The HUVECs were seeded at a density of 10,000 cells/well in 24 well plates in serum-containing medium and cultured overnight. Cells were starved with 300 μL of assay media (0.1% BSA+0.1% FBS in basal medium) for 24 h. Then, cells were treated with 500 μL of assay medium (control group), VEGF (10 ng/mL, positive control group) or VEGF along with compounds (20 μM). After 48 h of culture, 50 μL of MTT stock (5 mg/mL in PBS) was added to each well and incubated for 2 h at 37° C. to allow the formation of dark blue formazan crystals in the metabolically active cells. The medium was removed, the cells were washed with PBS (pH 7.4), and 100 μL of acidified isopropanol (0.33 mL HCl in 100 mL isopropanol) was added to each well and incubated for 5 min with thorough agitation to solubilize the formazan crystals. An equal volume of the solution was transferred to a 96-well plate and the absorbance was immediately measured using a microplate reader at a wavelength of 570 nm.

Assay [3] deals with T1, Mitochondrial respiratory complex II (Rattus norvegicus, UniProt P21913+Q641Z9+Q6PCT8+Q920L2).
T1 construct: measured spectrophotometrically using isolated rat heart mitochondria; from tissue; host or cells: rat heart mitochondria / sub-mitochondrial particles
T1 sequence (Q920L2 35-656): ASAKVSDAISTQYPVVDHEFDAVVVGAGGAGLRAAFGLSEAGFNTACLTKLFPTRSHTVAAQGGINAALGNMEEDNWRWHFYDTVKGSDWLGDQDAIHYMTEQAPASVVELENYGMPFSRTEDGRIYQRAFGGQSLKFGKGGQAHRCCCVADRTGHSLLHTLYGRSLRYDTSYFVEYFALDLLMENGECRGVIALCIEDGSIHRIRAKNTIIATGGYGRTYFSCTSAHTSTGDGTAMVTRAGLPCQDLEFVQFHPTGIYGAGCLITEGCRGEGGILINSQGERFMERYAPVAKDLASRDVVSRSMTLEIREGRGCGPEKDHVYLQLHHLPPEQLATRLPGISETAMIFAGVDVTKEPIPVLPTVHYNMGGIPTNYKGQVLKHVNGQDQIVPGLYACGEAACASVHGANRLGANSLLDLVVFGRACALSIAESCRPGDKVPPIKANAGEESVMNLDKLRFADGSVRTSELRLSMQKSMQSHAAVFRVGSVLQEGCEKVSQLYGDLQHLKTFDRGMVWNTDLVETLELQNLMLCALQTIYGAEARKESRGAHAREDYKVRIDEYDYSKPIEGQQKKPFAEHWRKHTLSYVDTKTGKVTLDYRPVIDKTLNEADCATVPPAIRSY
T1 sequence (P21913 31-282): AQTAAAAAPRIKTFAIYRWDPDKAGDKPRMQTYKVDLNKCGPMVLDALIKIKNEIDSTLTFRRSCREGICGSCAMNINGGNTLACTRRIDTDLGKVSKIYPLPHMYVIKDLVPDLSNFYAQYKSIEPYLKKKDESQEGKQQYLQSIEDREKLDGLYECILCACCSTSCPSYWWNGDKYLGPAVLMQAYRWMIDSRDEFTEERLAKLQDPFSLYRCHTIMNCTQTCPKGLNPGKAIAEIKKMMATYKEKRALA
T1 sequence (Q641Z9 1-169): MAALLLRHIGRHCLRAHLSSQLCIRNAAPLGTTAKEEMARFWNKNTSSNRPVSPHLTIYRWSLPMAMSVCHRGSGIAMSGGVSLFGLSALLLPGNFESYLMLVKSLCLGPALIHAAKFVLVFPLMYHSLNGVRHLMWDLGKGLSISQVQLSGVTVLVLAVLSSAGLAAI
T1 sequence (Q6PCT8 57-159): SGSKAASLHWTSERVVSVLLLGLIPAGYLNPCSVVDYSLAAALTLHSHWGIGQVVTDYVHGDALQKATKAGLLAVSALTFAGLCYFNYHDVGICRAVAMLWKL
The experiment in a line: Mitochondrial respiratory complex II inhibition assay. It counts as biochemical. The following applies: for inhibition at 100 µM: read-out: inhibition of CII; for IC50: isolated rat heart mitochondria, mean ±SD of n = 4, read-out: CII IC50. The method, then: The assay was performed as follows. Mitochondria were isolated either from fresh rat hearts or by differential centrifugation in sucrose-based buffer as previously described.^24 Complex II enzymatic activity was determined spectrophotometrically as the rate of succinate-driven, co-enzyme Q2-linked reduction of dichlorophenolindophenol (DCPIP).^49 Mitochondria or sub-mitochondrial particles were incubated in phosphate buffer (pH 7.4) containing 40 μM DCPIP, 1 mM KCN, 10 μM rotenone, and 50 μM co-enzyme Q2. The rate of reduction of DCPIP to DCPIPH2 was followed at […] (ε=21,000 M-1). Varying amounts of succinate and inhibitors were used to determine an IC50 value. At the end of each run thenoyltrifluoroacetone (1 mM) was added and the residual TTFA-insensitive rate subtracted.

In assay [4] the test system is 22Rv1 prostate cancer cells. The experiment in a line: MTS cytotoxicity assay in 22Rv1 prostate cancer cells. The following applies: for cytotoxicity at 100 µM: Homo sapiens, 22Rv1, 48 h, read-out: reduction of 22Rv1 cell viability; for reduction of 22Rv1 cell viability: 100 μM, 48 hrs treatment, MTS. The protocol: The assay was performed as follows. To determine the cell growth inhibition ability of the synthesized compounds the (3-(4,5-dimethylthiazol-2-yl)-5-(3-carboxymethoxyphenyl)-2-(4-sulfophenyl)-2H-tetrazolium) (MTS) assay used according to the manufacturer's recommended protocol. Stock solutions of the synthesized compounds were prepared in DMSO. Cells were seeded at a density of 1×10^5 cells in 96-well plates. After 24 hours, cells were treated at the indicated concentrations of test compounds, limiting the final DMSO concentration to less than 1%. After incubation at 37° C. in an environment of 5% CO2 for 48-72 hours, 10 μL of MTS reagent (CellTiter 96© AQueous One Solution Reagent) was added to each well and incubated at the above mentioned conditions for 2-4 hr. Absorbance was recorded at 490 nm on a BioTek Synergy Mx multimode plate reader and the viability of cells were plotted as percentage of controls.

The mark [5] stands for this setting: HUVEC, 48 h, 20 μM compound, VEGF 10 ng/mL, HUVEC, 48 h, relative to VEGF treated cells, mean ± SEM n = 3.
[6] abbreviates: 100 μM, relative to DMSO control.

“Also recorded” adds a separate entry of the source. Where two headings read alike, the source gives them in different places.

On to `O=S1(=O)NC(=S)Nc2ccc(F)cc21` [Compound 12a, 7-fluoro-3-thioxo-3,4-dihydro-2H-1,2,4-benzothiadiazine 1,1-dioxide], for which, in assay [1], the “effect on MDA-MB 468 TNBC cell viability” value was “no reduction of cell viability”. In addition, the “inhibition of VEGF-induced HUVEC proliferation (in words)” value (shortened to “inhibition … (in words)”) in assay [2] (VEGF 10 ng/mL) is “no appreciable inhibition”. In addition, in assay [2] (setting [5]), the inhibition at 20 µM stood at 50 ± 35%.
As a reminder, the IC50 is the concentration needed to halve the response being measured. For `O=S1(=O)NC(=S)Nc2cc(Cl)ccc21` [Compound 12b, 6-chloro-3-thioxo-3,4-dihydro-2H-1,2,4-benzothiadiazine 1,1-dioxide], the inhibition at 100 µM in assay [3] (setting [6]) amounted to 81%. For the same compound, the IC50 in assay [3] was determined as 11.9 µM. In addition, the inhibition at 20 µM in assay [2] (setting [5]) was found to be 0%. Moreover, the cytotoxicity at 100 µM in assay [4] amounted to 12%.
As to `O=S1(=O)NC(=S)Nc2ccc(Br)cc21` [Compound 12c, 7-bromo-3-thioxo-3,4-dihydro-2H-1,2,4-benzothiadiazine 1,1-dioxide], the inhibition at 100 µM in assay [3] (setting [6]) worked out at 55%. Also, in assay [3], the IC50 came to 37 µM. For the same compound, in assay [4], the cytotoxicity at 100 µM stood at 16%.
In the case of `CC(C)C(C)NC1=NS(=O)(=O)c2cc(F)ccc2N1` (stereo not drawn) [Compound 15a, 7-fluoro-3-((3-methylbutan-2-yl)amino)-4H-benzo[e][1,2,4]thiadiazine 1,1-dioxide], in assay [1], the “effect on MDA-MB 468 TNBC cell viability” value was “substantially less active”. In addition, the “inhibition … (in words)” value in assay [2] (VEGF 10 ng/mL) is listed as “no appreciable inhibition”. Also, in assay [2] (setting [5]), the inhibition at 20 µM worked out at 76 ± 18%.
With `O=S1(=O)N=C(NCc2ccc(Cl)cc2)Nc2ccc(F)cc21` [Compound 16a, 3-((4-chlorobenzyl)amino)-7-fluoro-4H-benzo[e][1,2,4]thiadiazine 1,1-dioxide], the “reduction of 22Rv1 cell viability” value in assay [4] was “inactive”.
With `O=S1(=O)N=C(NCCc2ccccc2)Nc2ccc(Br)cc21` [Compound 18c, 7-bromo-3-(phenethylamino)-4H-benzo[e][1,2,4]thiadiazine 1,1-dioxide], the “effect on MDA-MB 468 TNBC cell viability” value in assay [1] is on record as “potent activity”. For the same compound, the inhibition at 20 µM in assay [2] (HUVEC, 48 h) is 47 ± 24%.
For `COc1ccc(CNC2=NS(=O)(=O)c3ccccc3N2)cc1` [Compound 20d, 3-((4-methoxybenzyl)amino)-4H-benzo[e][1,2,4]thiadiazine 1,1-dioxide], the “effect on MDA-MB 468 TNBC cell viability” value in assay [1] was “no reduction of cell viability”.
`O=S1(=O)N=C(NC2CCCC2)Nc2cc(Cl)ccc21` [Compound 22b, 6-chloro-3-(cyclopentylamino)-4H-benzo[e][1,2,4]thiadiazine 1,1-dioxide] returned an IC50 in assay [1] of 148 ± 26.3 µM. Further, the cytotoxicity at 100 µM in assay [4] is roughly 35%.
For the compound `O=S1(=O)N=C(NCCCc2ccccc2)Nc2ccc(F)cc21` [Compound 23a, 7-fluoro-3-((3-phenylpropyl)amino)-4H-benzo[e][1,2,4]thiadiazine 1,1-dioxide], the inhibition at 100 µM in assay [3] (setting [6]) came to 14%. For the same compound, the “effect on MDA-MB 468 TNBC cell viability” value in assay [1] is on record as “almost complete amelioration of cell viability”. Also, the “% Inhibition of Proliferation” value in assay [2] (20 μM compound, VEGF 10 ng/mL, HUVEC, 48 h, relative to VEGF treated cells, mean ± SEM n = 3) is “inactive”. The “inhibition … (in words)” value in assay [2] (VEGF 10 ng/mL) is listed as “no appreciable inhibition”. Besides, the inhibition at 20 µM in assay [2] (setting [5]) came to 0%.
For `O=S1(=O)N=C(NCCCc2ccccc2)Nc2ccc(Br)cc21` [Compound 23c, 7-bromo-3-((3-phenylpropyl)amino)-4H-benzo[e][1,2,4]thiadiazine 1,1-dioxide], in assay [3] (setting [6]), the “inhibition of CII” value came out at 47% and the inhibition at 100 µM came out at 46%. Further, the inhibition at 20 µM in assay [2] (setting [5]) amounted to 24 ± 41%. In addition, in assay [4], the cytotoxicity at 100 µM is 42%.
For the compound `CC(NC1=NS(=O)(=O)c2cc(F)ccc2N1)c1ccccc1` (stereo not drawn) [Compound 24a, 7-fluoro-3-((1-phenylethyl)amino)-4H-benzo[e][1,2,4]thiadiazine 1,1-dioxide], the inhibition at 100 µM in assay [3] (setting [6]) turned out to be 22%. Moreover, the cytotoxicity at 100 µM in assay [4] came to 34%.
As for `CC(NC1=NS(=O)(=O)c2ccc(Cl)cc2N1)c1ccccc1` (stereo not drawn) [Compound 24b, 6-chloro-3-((1-phenylethyl)amino)-4H-benzo[e][1,2,4]thiadiazine 1,1-dioxide], the inhibition at 100 µM in assay [3] (setting [6]) came to 51%. The IC50 in assay [3] was determined as 89 µM. The inhibition at 20 µM in assay [2] (setting [5]) came out at 38 ± 33%. The cytotoxicity at 100 µM in assay [4] turned out to be 50%.
For the compound `CC(NC1=NS(=O)(=O)c2cc(Br)ccc2N1)c1ccccc1` (stereo not drawn) [Compound 24c, 7-bromo-3-((1-phenylethyl)amino)-4H-benzo[e][1,2,4]thiadiazine 1,1-dioxide], the inhibition at 100 µM in assay [3] (setting [6]) came out at 55%. For the same compound, the IC50 in assay [3] amounted to 79.8 µM. Further, in assay [4], the cytotoxicity at 100 µM was 70%.
Regarding `O=S1(=O)N=C(NCc2ccc(C(F)(F)F)cc2)Nc2ccc(Br)cc21` [Compound 25c, 7-bromo-3-((4-(trifluoromethyl)benzyl)amino)-4H-benzo[e][1,2,4]thiadiazine 1,1-dioxide], the cytotoxicity at 100 µM in assay [4] turned out to be 34%.
In the case of `COc1ccccc1CNC1=NS(=O)(=O)c2cc(F)ccc2N1` [Compound 26a, 7-fluoro-3-((2-methoxybenzyl)amino)-4H-benzo[e][1,2,4]thiadiazine 1,1-dioxide], in assay [3] (setting [6]), the inhibition at 100 µM was 37%. In addition, the “effect on MDA-MB 468 TNBC cell viability” value in assay [1] was “almost complete amelioration of cell viability”. For the same compound, the “inhibition … (in words)” value in assay [2] (VEGF 10 ng/mL) is “no appreciable inhibition”. In addition, the inhibition at 20 µM in assay [2] (setting [5]) came to 29 ± 33%.
Take `O=S1(=O)N=C(NCc2ccc(OC(F)(F)F)cc2)Nc2ccccc21` [Compound 30d, 3-((4-(trifluoromethoxy)benzyl)amino)-4H-benzo[e][1,2,4]thiadiazine 1,1-dioxide]: the cytotoxicity at 100 µM in assay [4] was roughly 30%.
As for `C=CCNC1=NS(=O)(=O)c2cc(F)ccc2N1` [Compound 32a, 3-(allylamino)-7-fluoro-4H-benzo[e][1,2,4]thiadiazine 1,1-dioxide], the inhibition at 100 µM in assay [3] (setting [6]) turned out to be 38%. Also, the cytotoxicity at 100 µM in assay [4] stood at 24%.
Consider `O=S1(=O)N=C(NCCc2ccc(Cl)cc2)Nc2ccc(F)cc21` [Compound 37a, 3-((4-chlorophenethyl)amino)-7-fluoro-4H-benzo[e][1,2,4]thiadiazine 1,1-dioxide], for which the inhibition at 100 µM in assay [3] (setting [6]) is 34%. Further, the “reduction of 22Rv1 cell viability” value in assay [4] is “inactive”.
As for `CC(C)NC1=NS(=O)(=O)c2ccccc2N1C` [Compound 43d, 3-(isopropylamino)-4-methyl-4H-benzo[e][1,2,4]thiadiazine 1,1-dioxide], in assay [1], the “effect on MDA-MB 468 TNBC cell viability” value was “no reduction of cell viability”.
`COc1ccc(CNC2=NS(=O)(=O)c3cc(Cl)ccc3N2)cc1` [Compound 56e, 7-Chloro-3-((4-methoxybenzyl)amino)-4H-benzo[e][1,2,4]thiadiazine 1,1-dioxide] came in with an IC50 in assay [1] of 62.9 ± 4.2 µM. In assay [2] (VEGF 10 ng/mL), the “inhibition … (in words)” value was “suppressed HUVEC proliferation; also recorded: enhanced activity”. The inhibition at 20 µM in assay [2] (setting [5]) was 91 ± 15%.
As for `Cc1ccc(CNC2=NS(=O)(=O)c3cc(Cl)ccc3N2)cc1` [Compound 61e, 7-Chloro-3-((4-methylbenzyl)amino)-4H-benzo[e][1,2,4]thiadiazine 1,1-dioxide], in assay [1], the IC50 is 43.1 µM. Besides, the “inhibition … (in words)” value in assay [2] (VEGF 10 ng/mL) is on record as “suppressed HUVEC proliferation; also recorded: enhanced activity”. The inhibition at 20 µM in assay [2] (setting [5]) was found to be 119 ± 10%.

(Values after patent US20230219912A1, “HALOGENATED BENZOTHIADIAZINES FOR THE TREATMENT OF CANCER” (BOARD OF REGENTS OF THE UNIVERSITY OF NEBRASKA, priority 2020, published 2023).)
